Laboratory results from ChEMBL document CHEMBL3856234, “Development of Multifunctional Pyrimidinylthiourea Derivatives as Potential Anti-Alzheimer Agents” (J Med Chem, 2016).
Converted amounts (≈) assume the structure as drawn. The source made the active and inactive calls. No cut-off for these calls is given here.

Tests used:
Acetylcholinesterase = target: T1, Acetylcholinesterase (Rattus norvegicus, UniProt P37136); assay: Inhibition of rat cortex AChE using acetylthiocholine iodide as substrate measured after 20 mins by Ellman's method
T1 sequence (P37136 whole entry): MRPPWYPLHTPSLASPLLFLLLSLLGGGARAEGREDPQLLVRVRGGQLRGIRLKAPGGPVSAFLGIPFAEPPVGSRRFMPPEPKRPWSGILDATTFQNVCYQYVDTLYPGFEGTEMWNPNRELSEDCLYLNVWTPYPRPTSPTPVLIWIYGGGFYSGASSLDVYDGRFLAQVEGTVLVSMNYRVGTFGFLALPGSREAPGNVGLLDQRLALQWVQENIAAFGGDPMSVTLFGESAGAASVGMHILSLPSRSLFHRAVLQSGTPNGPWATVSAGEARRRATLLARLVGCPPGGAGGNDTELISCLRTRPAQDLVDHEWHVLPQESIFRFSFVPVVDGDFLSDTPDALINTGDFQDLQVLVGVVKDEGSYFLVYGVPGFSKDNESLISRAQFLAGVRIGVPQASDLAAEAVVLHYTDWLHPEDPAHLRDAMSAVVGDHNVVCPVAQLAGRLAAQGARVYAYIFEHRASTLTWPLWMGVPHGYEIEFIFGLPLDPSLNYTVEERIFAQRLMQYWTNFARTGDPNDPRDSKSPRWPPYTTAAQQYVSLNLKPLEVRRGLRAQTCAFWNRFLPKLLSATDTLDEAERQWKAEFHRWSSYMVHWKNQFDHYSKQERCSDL

[1] = target: T2, Acetylcholinesterase (Rattus norvegicus) (UniProt P37136); assay: Inhibition of rat cortex AChE at 40 uM using acetylthiocholine iodide as substrate measured after 20 mins by Ellman's method relative to control
T2 sequence (whole entry): T1 sequence (P37136 whole entry)

Rattus norvegicus [2] = species: Rattus norvegicus; assay: Inhibition of rat serum BuChE at 40 uM using butyrylthiocholine as substrate measured after 20 mins by Ellman's method relative to control
[3] = Antioxidant activity assessed as trolox equivalent of AAPH radical scavenging activity preincubated for 10 mins followed by AAPH challenge measured every min for 180 mins by ORAC-FL assay; type: functional
Rattus norvegicus [4] = species: Rattus norvegicus; assay: Selectivity index, ratio of IC50 for rat serum BuChE to IC50 for rat cortex AChE
[5] = Permeability of the compound in PBS/EtOH (7:3) buffer measured after 10 hrs by PAMPA assay; type: ADME; conditions: read-out: Peff
[6] = Inhibition of rat serum BuChE using butyrylthiocholine as substrate measured after 20 mins by Ellman's method
[7] = Solubility of the compound in water measured after 24 hrs by HPLC analysis; type: physicochemical
[8] = Metal chelating activity assessed as Cu2+-compound complex formation at 40 uM measured after 1 hr by UV-vis spectroscopic analysis; type: physicochemical
[9] = Metal chelating activity assessed as Zn2+-compound complex formation at 40 uM measured after 1 hr by UV-vis spectroscopic analysis; type: physicochemical
[10] = Metal chelating activity assessed as Fe2+-compound complex formation at 40 uM measured after 1 hr by UV-vis spectroscopic analysis; type: physicochemical
[11] = Cytotoxicity against human SH-SY5Y cells assessed as reduction in cell viability at 100 uM measured after 24 hrs by MTT assay; type: toxicity, cell-based
[12] = Metal chelating activity assessed as Fe3+-compound complex formation at 40 uM measured after 1 hr by UV-vis spectroscopic analysis; type: physicochemical
[13] = Cytotoxicity against human SH-SY5Y cells assessed as reduction in cell viability at 10 and 30 uM measured after 24 hrs by MTT assay; type: toxicity, cell-based
[14] = Cytotoxicity against human SH-SY5Y cells assessed as reduction in cell viability after 24 hrs in presence of Cu2+ ion by MTT assay; type: toxicity, cell-based
SH-SY5Y = assay: Neuroprotective activity in human SH-SY5Y cells assessed as protection against Cu2+ induced amyloid-beta (1 to 42) neurotoxicity by measuring increase in cell viability at compound:amyloid-beta (1 to 42):Cu2+ ratio of 2:1:1 after 24 hrs by MTT assay relative to control; type: functional, cell-based
[15] = Inhibition of cupric ion-induced aggregation of amyloid beta (1 to 42) (unknown origin) at 50 uM measured after 24 hrs by dot blot assay
[16] = Inhibition of cupric ion-induced aggregation of amyloid beta (1 to 42) (unknown origin) at compound:amyloid beta (1 to 42):Cu2+ ratio of 2:1:1 measured after 24 hrs by TEM analysis
[17] = Antioxidant activity assessed as inhibition of Cu2+-induced CCA […] to 7-hydroxy-CCA by measuring decrease in hydroxyl radical production at 10 uM in presence of ascorbate by fluorescence assay

**Q.** Which IC50 (Acetylcholinesterase) does the source give for CCCNC(=S)Nc1cc(-n2cccn2)ncn1 here?
**A.** Its IC50 is 22 µM.

**Q.** What about the inhibition [1] of the same compound?
**A.** Its inhibition is 64%.

**Q.** With CCNC(=S)Nc1cc(-n2cnc(CN(C)C)c2)ncn1 as the compound, how does the inhibition (Rattus norvegicus [2]) read?
**A.** Its inhibition is 7.02%.

**Q.** What about the IC50 (Acetylcholinesterase) of the same compound?
**A.** Its IC50 is 0.153 µM.

**Q.** And the Activity (umolequiv/umol) [3]?
**A.** Its Activity (umolequiv/umol) is 1.17.

**Q.** What about the Ratio IC50 (Rattus norvegicus [4]) of the same compound?
**A.** The Ratio IC50 was > 261.

**Q.** And the Papp at 10 h [5]?
**A.** Its Papp at 10 h is 3 ×10⁻⁶ cm/s.

**Q.** And the IC50 [6]?
**A.** Its IC50 is > 40 µM.

**Q.** With CCCCNC(=S)Nc1cc(-n2cccn2)ncn1 as the compound, how does the IC50 (Acetylcholinesterase) read?
**A.** Its IC50 is 23.4 µM.

**Q.** And the inhibition [1]?
**A.** Its inhibition is 66.6%.

**Q.** For CNC(=S)Nc1cc(-n2cccn2)ncn1, which inhibition [1] is on record?
**A.** The inhibition was 46%.

**Q.** For CCNC(=S)Nc1cc(-n2cnc(CN(C)Cc3ccccc3)c2)ncn1 [listing 1 of 2 here], which solubility at 24 h [7] is on record?
**A.** The solubility at 24 h was 58 µg/mL (≈ 152 µM).

**Q.** What about the IC50 (Acetylcholinesterase) of the same compound?
**A.** The IC50 was 0.181 µM.

**Q.** And the Papp at 10 h [5]?
**A.** Its Papp at 10 h is 8.8 ×10⁻⁶ cm/s.

**Q.** What about the IC50 [6] of the same compound?
**A.** The IC50 was 15.2 µM.

**Q.** Which inhibition [1] does the source give for S=C(NCc1cccc(Cl)c1)Nc1cc(-n2cccn2)ncn1 here?
**A.** Its inhibition is 0%.

**Q.** For CCNC(=S)Nc1cc(-n2cnc(CN(C)Cc3ccccc3)c2)ncn1.Cl, which solubility at 24 h [7] is on record?
**A.** Its solubility at 24 h is 2740 µg/mL.

**Q.** What does the source list for CCNC(=S)Nc1cc(-n2cnc(CN(C)Cc3ccccc3)c2)ncn1 [listing 2 of 2 here]?
**A.** Activity (umolequiv/umol) [3]: 1.25; Ratio IC50 (Rattus norvegicus [4]): 84

**Q.** Which inhibition [1] does the source give for CC(C)NC(=S)Nc1cc(-n2cccn2)ncn1 here?
**A.** The inhibition was 36.2%.

**Q.** With CCNC(=S)Nc1cc(-n2cnc(C(=O)OC)c2)ncn1 as the compound, how does the IC50 (Acetylcholinesterase) read?
**A.** The IC50 was 0.347 µM.

**Q.** For CCNC(=S)Nc1ncnc(-n2ccnc2)c1C, which IC50 (Acetylcholinesterase) is on record?
**A.** Its IC50 is > 40 µM.

**Q.** What about the inhibition [1] of the same compound?
**A.** The inhibition was 45.9%.

**Q.** Which results are given for CCNC(=S)Nc1nccc(-n2ccnc2)n1?
**A.** IC50 (Acetylcholinesterase): 8.45 µM; inhibition [1]: 64.9%

**Q.** With CCNC(=S)Nc1cc(-n2cnc(CO)c2)ncn1 as the compound, how does the IC50 (Acetylcholinesterase) read?
**A.** Its IC50 is 0.995 µM.

**Q.** With CC(=O)Nc1cc(-n2cccn2)ncn1 as the compound, how does the inhibition [1] read?
**A.** Its inhibition is 5.09%.

**Q.** For CCNc1cc(-n2cccn2)ncn1, which inhibition [1] is on record?
**A.** The inhibition was 32.1%.

**Q.** Which inhibition [1] does the source give for CC(C)(C)NC(=S)Nc1cc(-n2cccn2)ncn1 here?
**A.** The inhibition was 11.3%.

**Q.** Which inhibition [1] does the source give for c1ccc(CNc2cc(-n3cccn3)ncn2)cc1 here?
**A.** Its inhibition is 10.8%.

**Q.** With CCCN(CCC)Cc1cn(-c2cc(NC(=S)NCC)ncn2)cn1 as the compound, how does the Activity [8] read?
**A.** Its Activity is “Active”.

**Q.** And the Activity [9]?
**A.** Its Activity is “Active”.

**Q.** What about the solubility at 24 h [7] of the same compound?
**A.** Its solubility at 24 h is 58 µg/mL (≈ 160 µM).

**Q.** And the Activity [10]?
**A.** The Activity was “Active”.

**Q.** What about the IC50 (Acetylcholinesterase) of the same compound?
**A.** Its IC50 is 0.204 µM.

**Q.** What about the Activity [11] of the same compound?
**A.** The Activity was “Toxic”.

**Q.** And the Activity [12]?
**A.** Its Activity is “Active”.

**Q.** And the Papp at 10 h [5]?
**A.** Its Papp at 10 h is 7.5 ×10⁻⁶ cm/s.

**Q.** What about the Activity [13] of the same compound?
**A.** Its Activity is “Non-Toxic”.

**Q.** What about the Activity [14] of the same compound?
**A.** Its Activity is “Non-Toxic”.

**Q.** And the IC50 [6]?
**A.** The IC50 was > 40 µM.

**Q.** Which IC50 (Acetylcholinesterase) does the source give for CCNC(=S)Nc1cc(-n2ccnc2CC)ncn1 here?
**A.** Its IC50 is 6.7 µM.

**Q.** Which IC50 (Acetylcholinesterase) does the source give for CCNC(=S)Nc1cc(-n2cnc(I)c2)ncn1 here?
**A.** Its IC50 is 0.636 µM.

**Q.** With CCNC(=S)Nc1cc(N2CCN(C)CC2)ncn1 as the compound, how does the IC50 (Acetylcholinesterase) read?
**A.** Its IC50 is 3.26 µM.

**Q.** What about the inhibition [1] of the same compound?
**A.** Its inhibition is 70.1%.

**Q.** For CCCc1cc(-n2cccn2)ncn1, which inhibition [1] is on record?
**A.** Its inhibition is 9.88%.

**Q.** Which inhibition (Rattus norvegicus [2]) does the source give for CCNC(=S)Nc1cc(-n2cnc(CN3CCCC3)c2)ncn1 here?
**A.** The inhibition was 33.5%.

**Q.** And the Activity (umolequiv/umol) [3]?
**A.** The Activity (umolequiv/umol) was 1.2.

**Q.** And the Activity (SH-SY5Y)?
**A.** The Activity was “Active”.

**Q.** And the Ratio IC50 (Rattus norvegicus [4])?
**A.** The Ratio IC50 was > 597.

**Q.** What about the inhibition [15] of the same compound?
**A.** The inhibition was “Active”.

**Q.** And the inhibition [16]?
**A.** Its inhibition is “Active”.

**Q.** And the inhibition [17]?
**A.** The inhibition was “Active”.

**Q.** What does the source list for CCNC(=S)Nc1cc(N2CCOCC2)ncn1?
**A.** IC50 (Acetylcholinesterase): 23.2 µM; inhibition [1]: 54.1%

**Q.** Which inhibition (Rattus norvegicus [2]) does the source give for CCNC(=S)Nc1cc(-n2cnc(CN3CCN(C)CC3)c2)ncn1 here?
**A.** The inhibition was 10.8%.

**Q.** And the IC50 (Acetylcholinesterase)?
**A.** The IC50 was 0.103 µM.

**Q.** What about the Activity (umolequiv/umol) [3] of the same compound?
**A.** The Activity (umolequiv/umol) was 1.23.

**Q.** And the Ratio IC50 (Rattus norvegicus [4])?
**A.** Its Ratio IC50 is > 388.

**Q.** What about the Papp at 10 h [5] of the same compound?
**A.** The Papp at 10 h was 1.95 ×10⁻⁶ cm/s.

**Q.** What about the IC50 [6] of the same compound?
**A.** The IC50 was > 40 µM.

**Q.** Which IC50 (Acetylcholinesterase) does the source give for CCNC(=S)Nc1cc(-n2cnc(Br)c2)ncn1 here?
**A.** Its IC50 is 0.975 µM.

**Q.** Which IC50 (Acetylcholinesterase) does the source give for C/C=C1\[C@H]2C=C(C)C[C@]1(N)c1ccc(=O)[nH]c1C2 [HUPERZINE A] here?
**A.** The IC50 was 0.082 µM.

**Q.** What about the Activity [11] of the same compound?
**A.** The Activity was “Non-Toxic”.

**Q.** And the Ratio IC50 (Rattus norvegicus [4])?
**A.** The Ratio IC50 was 444.

**Q.** And the Activity [13]?
**A.** Its Activity is “Non-Toxic”.

**Q.** And the IC50 [6]?
**A.** Its IC50 is 36.4 µM.

**Q.** For CCNC(=S)Nc1cc(-n2ccnc2C)ncn1, which IC50 (Acetylcholinesterase) is on record?
**A.** The IC50 was 6.1 µM.

**Q.** Which solubility at 24 h [7] does the source give for CCNC(=S)Nc1cc(-n2cnc(CN3CCCC3)c2)ncn1.Cl here?
**A.** The solubility at 24 h was 19500 µg/mL.

**Q.** For Nc1cc(-n2cccn2)ncn1, which inhibition [1] is on record?
**A.** The inhibition was 18.9%.

**Q.** For CCNC(=S)Nc1cc(-n2cncn2)ncn1, which IC50 (Acetylcholinesterase) is on record?
**A.** Its IC50 is 1.05 µM.

**Q.** What about the inhibition [1] of the same compound?
**A.** The inhibition was 66.6%.

**Q.** With c1cc(-n2cnc(CN3CCCC3)c2)ncn1 as the compound, how does the Activity [8] read?
**A.** The Activity was “Active”.

**Q.** What about the Activity [9] of the same compound?
**A.** Its Activity is “Active”.

**Q.** And the Activity [10]?
**A.** Its Activity is “Active”.

**Q.** What about the Activity (umolequiv/umol) [3] of the same compound?
**A.** The Activity (umolequiv/umol) was -0.01.

**Q.** What about the Activity [12] of the same compound?
**A.** Its Activity is “Active”.
